{
  "source": "patent US7935680B2",
  "about": "“Methods for modulating the axonal growth of central nervous system neurons” (Children's Medical Center Corporation, priority 1997, dated 2011)",
  "key": {"[1]": {"system": "goldfish retinal ganglion cells", "assay": "Axonal outgrowth from dissociated goldfish retinal ganglion cell cultures", "type": "cell-based", "conditions": "for effect of reducing agents on outgrowth stimulated by AF-1: a-tocopherol 30 μM, MEG 100 μM; for decline of AF-1 activity: n.s.", "experimental": "Axogenesis factor-1 was obtained essentially as described in Schwalb et al., 1995, and Schwalb et al., Neuroscience, 72: 901-910, 1996, the contents of which are incorporated herein by reference). Optic nerves were dissected, cut into fragments 1 mm in length, and incubated in a ratio of 6 nerves in 3 ml of either L-15 media (Gibco BRL) or phosphate-buffered saline (Gibco BRL). After 3-4 hours, nerve fragments were removed by filtering through a 0.22 μm pore low protein-binding filter (Gelman). A low molecular weight fraction of the conditioned media was prepared by ultrafiltration, first with a molecular weight cut-off of 3 kDa (Amicon Centriprep-3), then with a cut-off of 1 kDa (Filtron). The filtrate was used as a positive control at 20-30% final concentration. […] Goldfish (Comet Variety, Mt. Parnell Fisheries, Mt. Parnell Pa.), 6-10 cm in length, were dark-adapted and their retinas dissected. Retinas were incubated with papain (20 μg/ml), activated with cysteine (2.8 mM) for 30 minutes at room temperature, then dissociated by gentle trituration. […] Neuroscience 15: 5514-5625, 1995, the contents of which are incorporated herein by reference). […] Cells were maintained at 21° C. in serum free, defined media containing insulin, selenium, transferrin, bovine serum albumin, catalase, superoxide dismutase, hormones, and vitamins in Eagle's L-15 media as described in Schwalb et al., 1995, the contents of which are incorporated herein by reference). Dissociated cultures of purified rat retinal ganglion cells were prepared by immunopanning as described in Barres et al., Neuron, 1: 791-803, 1988, the contents of which are incorporated herein by reference). In brief, retinas from postnatal day 8 Sparague-Dawley rats were dissociated using papain activated with cysteine. Macrophages were removed by incubation with an anti-rat macrophage antibody (Accurate) followed by immunopanning with an anti-rabbit 1gG antibody. Ganglion cells were isolated by immunopanning with an anti-Thy-1 antibody, then dislodged with trypsin for use in low-density cultures. Rat retinal ganglion cells were maintained at 37° C. in a CO2 incubator using the same medium described above except for the presence of 30 mM bicarbonate. In a typical experiment, samples were plated in quadruplicate in randomized positions of a 24-well plate and the code was concealed to ensure that growth was evaluated in a blinded fashion. Each experiment contained 4 wells of a negative control (media plus supplements only) and 4 wells of a positive control (a standardized AF-1 sample of known activity). […] After the completion of counting, the code was broken, the data tabulated, and means and standard errors were calculated for the 4 replicate wells of each sample using Cricket Graph (CA Associates, […].). […] Group comparisons were based upon pairwise, 2-tailed Student's t-tests. Several independent experiments were performed for most samples, as noted in the figure legends. […] Cell survival is reported as the number of viable RGCs per high-powered field."}, "[2]": {"system": "rat retinal ganglion cells", "assay": "Axonal outgrowth from purified rat retinal ganglion cells", "type": "cell-based", "conditions": "6-TG 10 μM, rat RGCs", "experimental": "Goldfish (Comet Variety, Mt. Parnell Fisheries, Mt. Parnell Pa.), 6-10 cm in length, were dark-adapted and their retinas dissected. Retinas were incubated with papain (20 μg/ml), activated with cysteine (2.8 mM) for 30 minutes at room temperature, then dissociated by gentle trituration. Repeated cycles of trituration and sedimentation yielded cultures nearly homogeneous in ganglion cells, which are readily identified by their oval shape, phase-bright appearance, size (diameter 15 μm), and extension of only 1 or 2 neurites of uniform caliber; these criteria have been verified by retrograde labeling (see Schwartz & Agranoff, Brain Res. 206: 331-343, 1981 and Schwalb et al., J. Neuroscience 15: 5514-5625, 1995, the contents of which are incorporated herein by reference). Low density cultures were achieved by plating c. 5×10^3 cells/well into poly L-lysine coated, 24-well culture dishes (Costar, Cambridge, Mass.). Cells were maintained at 21° C. in serum free, defined media containing insulin, selenium, transferrin, bovine serum albumin, catalase, superoxide dismutase, hormones, and vitamins in Eagle's L-15 media as described in Schwalb et al., 1995, the contents of which are incorporated herein by reference). Dissociated cultures of purified rat retinal ganglion cells were prepared by immunopanning as described in Barres et al., Neuron, 1: 791-803, 1988, the contents of which are incorporated herein by reference). In brief, retinas from postnatal day 8 Sparague-Dawley rats were dissociated using papain activated with cysteine. Macrophages were removed by incubation with an anti-rat macrophage antibody (Accurate) followed by immunopanning with an anti-rabbit 1gG antibody. Ganglion cells were isolated by immunopanning with an anti-Thy-1 antibody, then dislodged with trypsin for use in low-density cultures. Rat retinal ganglion cells were maintained at 37° C. in a CO2 incubator using the same medium described above except for the presence of 30 mM bicarbonate.\nIn a typical experiment, samples were plated in quadruplicate in randomized positions of a 24-well plate and the code was concealed to ensure that growth was evaluated in a blinded fashion. Each experiment contained 4 wells of a negative control (media plus supplements only) and 4 wells of a positive control (a standardized AF-1 sample of known activity). Growth and survival were assessed after 6 days for all ganglion cells in 25 consecutive fields of each well using phase contrast microscopy at 400× magnification (c. 150 ganglion cells counted per well). Extension of a process 5 cell diameters in length was the criterion for growth, since it clearly distinguishes stimulated cells from negative controls (see Schwalb et al., 1995). After the completion of counting, the code was broken, the data tabulated, and means and standard errors were calculated for the 4 replicate wells of each sample using Cricket Graph (CA Associates, Islandia, N.Y.). Data were normalized by subtracting the growth in the negative controls (usually 4-5%) and dividing by the net growth in the positive controls. In the most favorable experiments, more than 50% of retinal ganglion cells (RGCs) exposed to AF-1 extended axons 5 cell diameters in length after 6 days. Group comparisons were based upon pairwise, 2-tailed Student's t-tests. Several independent experiments were performed for most samples, as noted in the figure legends. In some cases, cell viability was assessed with the dye 5,6-carboxyfluorescein diacetate. […]"}},
  "note": "Entries after “also recorded” stand apart in the source; their conditions may differ.",
  "data": [
    {"compound": "glutathione a-methyl ester [MEG]", "values": [
      {"measurement": "effect of reducing agents on outgrowth stimulated by AF-1", "setting": "[1]", "value": "no effect; also recorded: not mimicked"}
    ]},
    {"compound": "Nc1nc(Cl)nc2c1ncn2[C@@H]1O[C@H](CO)[C@@H](O)[C@H]1O", "note": "[2-CA, 2-chloroadenosine]", "values": [
      {"measurement": "growth relative to baseline", "setting": "[1]; 100 μM, FIG. 2", "value": "diminishes growth below baseline levels"},
      {"measurement": "growth relative to baseline", "setting": "[1]; 10 and 100 μM, 3 out of 3 experiments", "value": "small but significant decrease in growth below the baseline"}
    ]},
    {"compound": "O=[N+]([O-])c1ccc(CSc2ncnc3c2ncn3C2OC(CO)C(O)C2O)cc1", "note": "(stereo not drawn) [NBTI, nitrobenzylthio inosine]", "values": [
      {"measurement": "effect on the activity of AF-1", "setting": "[1]; NBTI 20 μM", "value": "no effect"},
      {"measurement": "loss of activity of inosine", "setting": "[1]; NBTI 20 μM, 50 μM inosine", "value": 86, "unit": "%"},
      {"measurement": "loss of activity of guanosine", "setting": "[1]; NBTI 20 μM, 100 μM guanosine", "value": 93, "unit": "%"},
      {"measurement": "decline of AF-1 activity", "setting": "[1]; NBTI 20 μM, dipyridamole 10 μM", "value": 10, "unit": "%"}
    ]},
    {"compound": "Cc1c(C)c2c(c(C)c1O)CC[C@@](C)(CCC[C@H](C)CCC[C@H](C)CCCC(C)C)O2", "note": "[a-tocopherol]", "values": [
      {"measurement": "effect of reducing agents on outgrowth stimulated by AF-1", "setting": "[1]", "value": "no effect; also recorded: not mimicked"}
    ]},
    {"compound": "Nc1nc2nc[nH]c2c(=S)[nH]1", "note": "[6-TG, 6-thioguanine]", "values": [
      {"measurement": "effect on growth stimulated by 100 μM inosine or 100 μM guanosine", "setting": "[1]; 6-TG 10 μM", "value": "no effect; also recorded: unaffected"},
      {"measurement": "effect on growth stimulated by AF-1", "setting": "[1]; 6-TG 10 μM", "value": "blocked all growth stimulated by AF-1; also recorded: suppressed growth induced by AF-1 below baseline; also recorded: completely blocked"},
      {"measurement": "effect on CNTF-induced outgrowth", "setting": "[2]", "value": "blocked CNTF-induced outgrowth; also recorded: inhibited"}
    ]},
    {"compound": "O=c1[nH]cnc2nc[nH]c12", "note": "[hypoxanthine]", "values": [
      {"measurement": "axonal outgrowth activity", "setting": "[1]; dose-response, FIG. 4", "value": "no activity at all"},
      {"measurement": "axonal outgrowth activity", "setting": "[1]; dose-response, FIG. 4, listed as Hypoxanthine", "value": "inactive"}
    ]},
    {"compound": "Nc1ncnc2c1ncn2[C@@H]1O[C@H](COP(=O)(O)OP(=O)(O)OP(=O)(O)O)[C@@H](O)[C@H]1O", "note": "[ATP, adenosine triphosphate]", "values": [
      {"measurement": "axonal outgrowth activity", "setting": "[1]; at 10 μM", "value": "marginally significant level of activity"},
      {"measurement": "axonal outgrowth activity", "setting": "[1]; at 100 μM", "value": "not at 100 μM"}
    ]},
    {"compound": "OCCN(CCO)c1nc(N2CCCCC2)c2nc(N(CCO)CCO)nc(N3CCCCC3)c2n1", "note": "[dipyridamole]", "values": [
      {"measurement": "effect of transport inhibitors on 6-TG blockade of AF-1-stimulated outgrowth", "setting": "[1]; 6-TG 10 μM, NBTI 20 μM, dipyridamole 10 μM", "value": "failed to prevent 6-TG from blocking outgrowth; also recorded: not restored"},
      {"measurement": "decline of AF-1 activity", "setting": "[1]; NBTI 20 μM, dipyridamole 10 μM", "value": 25, "unit": "%"}
    ]},
    {"compound": "8-bromoadenosine-3′,5′ cyclic monophosphorothioate [Sp-8-Br-cAMPS]", "values": [
      {"measurement": "axonal outgrowth activity", "setting": "[1]; concentrations up to 1 mM", "value": "inactive"}
    ]},
    {"compound": "Nc1ncnc2c1ncn2[C@@H]1O[C@H](COP(=O)(O)O)[C@@H](O)[C@H]1O", "note": "[AMP, adenosine 5′ monophosphate]", "values": [
      {"measurement": "axonal outgrowth activity", "setting": "[1]; at 100 μM", "value": "marginally significant level of activity"}
    ]},
    {"compound": "Cn1c(=O)c2[nH]c(-c3ccc(S(=O)(=O)O)cc3)nc2n(C)c1=O", "note": "[8-PST, 8-p-(sulfophenyltheophylline)]", "values": [
      {"measurement": "effect on outgrowth stimulated by adenosine, guanosine, or AF-1", "setting": "[1]; 8-PST at 20 μM", "value": "no effect"},
      {"measurement": "effect on outgrowth stimulated by AF-1, 100 μM adenosine or 100 μM guanosine", "setting": "[1]; addition of 20 pM 8-PST", "value": "unaffected"}
    ]},
    {"compound": "Nc1ncnc2c1ncn2[C@@H]1O[C@H](COP(=O)(O)OP(=O)(O)O)[C@@H](O)[C@H]1O", "note": "[ADP, adenosine diphosphate]", "values": [
      {"measurement": "axonal outgrowth activity", "setting": "[1]; at 100 μM", "value": "marginally significant level of activity"}
    ]},
    {"compound": "Nc1nc2c(nc(Sc3ccc(Cl)cc3)n2[C@@H]2O[C@@H]3COP(=O)(O)O[C@H]3[C@H]2O)c(=O)[nH]1", "note": "[8-pcpt-cGMP, 8-(4-chlorophenylthio) guanosine-3′,5′-cyclic monophosphate]", "values": [
      {"measurement": "axonal outgrowth activity", "setting": "[1]; concentrations up to 1 mM", "value": "inactive"}
    ]},
    {"compound": "Nc1nc2c(nc(Br)n2[C@@H]2O[C@@H]3COP(=O)(O)O[C@H]3[C@H]2O)c(=O)[nH]1", "note": "[8-Br cGMP, 8-bromo cyclic GMP]", "values": [
      {"measurement": "axonal outgrowth activity", "setting": "[1]; tested at concentrations between 1-100 μM", "value": "Neither dibutyryl cAMP (dBcAMP) nor 8-Br cGMP showed any activity"}
    ]}
  ]
}
